Residues, ends and D or L forms follow the SMILES beside them. *: point of attachment. X5 = 4‑(N-piperazino)phenyl‑bis(4-dimethylaminophenyl)carbenium, CN(C)c1ccc([C+](c2ccc(N(C)C)cc2)c2ccc(N3CCN(*)CC3)cc2)cc1; X9 = CN(C)c1ccc([C+](c2ccc(N(C)C)cc2)c2ccc(N3CCN(*)CC3)cc2)cc1
Legend:
elastase = assay: Treatment with elastase, released dye fragment found by MS-analysis (synthesis examples); assay type: biochemical; conditions: elastase species not stated
MPO = target: T1, MPO (Homo sapiens, UniProt P05164); assay: Reaction of methoxy aniline derivative as substrate of MPO; assay type: biochemical
T1 sequence (P05164 49-745): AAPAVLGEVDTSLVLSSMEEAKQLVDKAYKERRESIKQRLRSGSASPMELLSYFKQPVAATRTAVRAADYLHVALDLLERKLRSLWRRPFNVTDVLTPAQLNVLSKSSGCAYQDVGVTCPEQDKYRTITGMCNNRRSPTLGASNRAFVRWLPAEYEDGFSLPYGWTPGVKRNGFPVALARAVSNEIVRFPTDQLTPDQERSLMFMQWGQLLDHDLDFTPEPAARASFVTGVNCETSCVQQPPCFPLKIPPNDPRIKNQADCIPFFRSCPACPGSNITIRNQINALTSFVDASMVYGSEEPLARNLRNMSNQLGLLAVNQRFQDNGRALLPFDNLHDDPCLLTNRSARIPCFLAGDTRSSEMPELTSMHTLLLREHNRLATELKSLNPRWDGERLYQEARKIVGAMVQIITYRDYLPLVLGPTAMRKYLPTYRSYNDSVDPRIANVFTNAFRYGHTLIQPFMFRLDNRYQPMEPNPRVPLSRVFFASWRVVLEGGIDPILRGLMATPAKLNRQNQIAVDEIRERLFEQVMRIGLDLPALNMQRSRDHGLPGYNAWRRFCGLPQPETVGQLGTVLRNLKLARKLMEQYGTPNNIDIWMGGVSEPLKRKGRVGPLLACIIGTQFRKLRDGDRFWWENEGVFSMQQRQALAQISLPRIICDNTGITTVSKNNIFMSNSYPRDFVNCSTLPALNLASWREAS
Excerpt: The ideal ratio by mass is circa 2:8 aniline: product of example 10. The most efficient reaction occurs when the divalent anion is sulphuric acid, however, disulfonic substituted aromatic systems and phosphoric acid can also be used with diminished rate. HC1 provides only limited reaction. On reaction, one of the products of MPO oxidation appears to be the dimer of the two aniline components (see FIG. 13).

[1] = Color change of allyl sulfophthalein dyes with pH, base or ammonia; assay type: physicochemical
[2] = target: T2, human elastase from leucocytes (Homo sapiens, UniProt P08246); assay: Enzyme hydrolysis of substrates by human elastase from leucocytes, cleavage products by ion trap MS; conditions: mass peak at m/z=484
T2 sequence (P08246 30-267): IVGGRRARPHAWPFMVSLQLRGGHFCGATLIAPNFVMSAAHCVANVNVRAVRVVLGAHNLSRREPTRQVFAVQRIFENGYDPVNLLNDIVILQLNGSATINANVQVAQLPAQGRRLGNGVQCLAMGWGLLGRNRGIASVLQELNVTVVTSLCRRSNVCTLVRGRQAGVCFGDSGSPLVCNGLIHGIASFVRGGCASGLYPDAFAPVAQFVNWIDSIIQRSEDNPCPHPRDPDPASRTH
Method: (§1) Appearance of the assay mixture was either a clear solution, a suspension or a gel, depending on the properties of the enzyme substrate. Incubation was performed at 37° C. After 3 and 20 h, 10 μL samples were taken and the enzyme was denatured by addition of 10 μL MeOH to each sample. After mixing and incubation at −20° C. for 20 min the samples were centrifuged at 13.000 rpm for 10 min. Each assay included a control without enzyme, containing 1 mg/mL to 5 mg/mL substrate and analysis was performed in the same way and in parallel to the enzyme-containing assays. The supernatant after MeOH precipitation was analyzed via ion trap MS, either [M+H]+ or [M−H]−, depending on the properties of the molecule and the expected cleavage products.

[3] = target: pancreatic porcine elastase (Sus scrofa, UniProt P00772); assay: Enzyme hydrolysis of substrates by pancreatic porcine elastase, cleavage products by ion trap MS; conditions: mass peak at m/z=484
Chain of pancreatic porcine elastase (P00772 27-266): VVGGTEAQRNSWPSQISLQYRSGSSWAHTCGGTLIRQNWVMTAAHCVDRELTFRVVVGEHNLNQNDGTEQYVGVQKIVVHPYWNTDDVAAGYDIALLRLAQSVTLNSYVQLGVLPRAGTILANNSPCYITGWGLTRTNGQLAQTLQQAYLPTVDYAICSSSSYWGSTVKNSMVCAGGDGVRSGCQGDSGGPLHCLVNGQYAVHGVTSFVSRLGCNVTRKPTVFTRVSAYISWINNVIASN
Method: as §1

Molecule: Fmoc-AAPF-aminoethyl-(Remazol Black B)-(N′-acetyl)-ethylamide [Example 53]
- release of dye fragment on treatment with elastase (elastase): yield the mono-acetylated-Remazol Black B-amino derivative

Molecule: CMC 9M31F-AAPFA-RBB [Example 54]
- release of dye fragment on treatment with elastase (elastase): release of the dye

Molecule: CCCCCCCCCCCCC(O)CNc1cc(OC)c(NC(=O)c2ccccc2)cc1OC (racemic) [Example 10, N-(1-[2-Hydroxy]Tetradecanyl) Fast Blue RR (N-4-(1,3-Dimethoxy-2-N-Benzoylamidophenyl)-N′-Rac-(2-Hydroxy-n-Tetradecyl)-Amine)]
- reaction as substrate of MPO (MPO): can be a direct substrate of MPO

Molecule: CMC 9M31F-AAPF-RBB [Example 55]
- release of dye fragment on treatment with elastase (elastase): release of the dye

Molecule: CC(N)C(=O)NC(C)C(=O)N1CCCC1C(=O)NC(C(=O)NC(C)C(=O)N1CCN(c2ccc([C+](c3ccc(N(C)C)cc3)c3ccc(N(C)C)cc3)cc2)CC1)C(C)C (stereo not drawn) [Example 71, 4-([4-{H-Ala-Ala-Pro-Val-Ala}[SEQ ID NO: 28]amido N-piperazino]phenyl)-bis-(4-dimethyl-aminophenyl)-carbenium ion] (H-AAPVA-X9; configuration not given here)
- release of dye fragment on treatment with elastase (elastase): released A-CV

Molecule: C-Allyl Bromophenol Red [Example 97]
- color change with pH / base / ammonia [1]: color changed with ammonia to violet

Molecule: C=CCOc1ccc(C2(c3ccc(O)c(Cl)c3)OS(=O)(=O)c3ccccc32)cc1Cl (centres unmarked) [Example 95, O-Allyl Chlorophenol Red]
- color change with pH / base / ammonia [1]: no longer changed color with pH

Molecule: C-Allyl Chlorophenol Red [Example 96]
- color change with pH / base / ammonia [1]: changed color when treated with base to deep violet

Molecule: 4-([4-{H-Ala-Ala-Pro-Val-Ala}amido N-piperazino]phenyl)-bis-(4-dimethyl-aminophenyl)-carbenium ion polyacrylamide (H-AAPVA-X5; also: polyacrylamide) [Example 71e]
- release of A-CV on treatment with human elastase [2]: releases A-CV
- release of A-CV on treatment with porcine elastase [3]: releases A-CV

Molecule: Bis-(4-dimethylaminophenyl)-(4-[4-N-{6-N-valinoyl)aminohexanoyl}]piperazinophenyl)-carbenium ion [Example 72]
- release of dye fragment on treatment with elastase (elastase): releases no Ahx-CV
